According to patent US10787430B2, “Hemoglobin modifier compounds and uses thereof” (FronThera U.S. Pharmaceuticals LLC, priority 2016, dated 2020):

Experiments:
[1] = target: T1, hemoglobin (normal human adult blood) (Homo sapiens, UniProt P68871+P69905); assay: Time-dependent oxygen equilibrium curve (OEC) studies in normal whole blood; type: cell-based; conditions: 2 mM compound, 2% DMSO, normal human blood 20% hematocrit, 37° C., 1 h
T1 construct: Normal whole blood was collected from adult healthy donors; from tissue; host or cells: normal human whole blood (red blood cells), adult healthy donors
T1 sequence (P69905 2-142 limits assumed): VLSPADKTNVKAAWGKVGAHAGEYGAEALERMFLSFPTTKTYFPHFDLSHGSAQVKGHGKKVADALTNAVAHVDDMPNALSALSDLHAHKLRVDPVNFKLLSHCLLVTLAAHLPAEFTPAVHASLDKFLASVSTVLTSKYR
T1 sequence (P68871 2-147 limits assumed): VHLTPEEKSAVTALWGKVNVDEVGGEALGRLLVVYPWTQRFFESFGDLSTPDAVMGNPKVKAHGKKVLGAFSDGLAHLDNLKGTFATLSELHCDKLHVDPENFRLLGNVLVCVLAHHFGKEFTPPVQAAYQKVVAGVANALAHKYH
Experimental: (§1) Materials: Normal whole blood was collected from adult healthy donors at the Virginia Commonwealth University after informed consent. The use of these human samples is in accordance with regulations of the IRB for Protection of Human Subjects. Compounds (50 mM-100 mM concentration in DMSO) were stored at 15° C. or room temperature until use.
The time-dependent OEC studies were conducted on normal human adult blood samples with hematocrit value of 20% in the absence or presence of effectors solubilized in DMSO at final drug and DMSO concentrations of 2 mM and 2%, respectively. […] The mixture was further incubated at 37° C. with shaking. […] After equilibration, the sample was removed by syringe and aspirated into a ABL 700 series table top automated blood gas analyzer (Radiometer America, Inc., Westlake, Ohio) to determine values of total hemoglobin (tHb), methemoglobin (metHb), hematocrit (Hct), pH, partial pressure of oxygen (pO2), and Hb oxygen saturation values (sO2). The measured values of sO2 and pO2 at each partial pressure of oxygen are then subjected to a non-linear regression analysis using the program Scientist (Micromath, Salt Lake City, Utah) with the following equation: […]
This equation was used to calculate P50 and Hill coefficient (N) values. Corresponding control experiments without the test compound (P50control) but containing DMSO were also performed. GBT440 was used as a positive control.

[2] = target: T2, hemoglobin (20% hct blood) (Homo sapiens, UniProt P68871+P69905); assay: Dose-dependent whole blood OEC studies; type: cell-based; conditions: 37° C., 1 hr; for delta p50 0.2 mM: 0.2 mM compound; for delta p50 0.5 mM: 0.5 mM compound
T2 construct: Normal whole blood was collected from adult healthy donors; from tissue; host or cells: normal human whole blood (red blood cells), adult healthy donors
T2 sequence (P69905 2-142 limits assumed): as the sequence (P69905 2-142 limits assumed) above
T2 sequence (P68871 2-147 limits assumed): as the sequence (P68871 2-147 limits assumed) above
Experimental: as §1
To 2 ml 20% hct blood, 0.2 or 0.5 or 1 mM compound was added and kept shaking at 37° C. for 1 hr. OEC analysis was performed as described above to determine partial pressure of oxygen (pO2) and Hb oxygen saturation values (sO2). A control without compound but containing equivalent amount of DMSO was performed (1%). GBT440 was used as a positive control. Table 2 below lists the delta p50% values.

SMILES	delta p50 [1] [%]	delta p50 0.2 mM [2] [%]	delta p50 0.5 mM [2] [%]
CC(C)n1nccc1-c1ncccc1COc1ccc2c(c1C=O)CCO2 [Example 2, 5-((2-(1-isopropyl-1H-pyrazol-5-yl)pyridin-3-yl)methoxy)-2,3-dihydrobenzofuran-4-carbaldehyde]	−78		
CC(C)n1nccc1-c1ncccc1COc1cc2c(cc1C=O)OCC2 [Example 3, 5-((2-(1-isopropyl-1H-pyrazol-5-yl)pyridin-3-yl)methoxy)-2,3-dihydrobenzofuran-6-carbaldehyde]	−62		
CC(C)n1nccc1-c1ncccc1COc1ccc2c(c1C=O)OCC2 [Example 4, 6-((2-(1-isopropyl-1H-pyrazol-5-yl)pyridin-3-yl)methoxy)-2,3-dihydrobenzofuran-7-carbaldehyde]	−51		
CC(C)n1nccc1-c1ncccc1COc1ccc2ccoc2c1C=O [Example 5, 6-((2-(1-isopropyl-1H-pyrazol-5-yl)pyridin-3-yl)methoxy)benzofuran-7-carbaldehyde]	−77		
CC(C)n1nccc1-c1ncccc1COc1ccc2c(c1C=O)OCO2 [Example 6, 5-((2-(1-isopropyl-1H-pyrazol-5-yl)pyridin-3-yl)methoxy)benzo[d][1,3]dioxole-4-carbaldehyde]	−66		
CC(C)n1nccc1-c1ncccc1COc1ccc2c(c1C=O)OCCO2 [Example 7, 6-((2-(1-isopropyl-1H-pyrazol-5-yl)pyridin-3-yl)methoxy)-2,3-dihydrobenzo[b][1,4]dioxine-5-carbaldehyde]	−59		
CC(C)n1nccc1-c1ncccc1COc1ccc2c(c1C=O)OC(F)(F)O2 [Example 8, 2,2-difluoro-5-((2-(1-isopropyl-1H-pyrazol-5-yl)pyridin-3-yl)methoxy)benzo[d][1,3]dioxole-4-carbaldehyde]	−68		
CC(C)n1nccc1-c1ncccc1COc1ccc2c(c1C=O)C(O)C(F)(F)O2 (stereo not shown) [Example 9, 2,2-difluoro-3-hydroxy-5-((2-(1-isopropyl-1H-pyrazol-5-yl)pyridin-3-yl)methoxy)-2,3-dihydrobenzofuran-4-carbaldehyde]	−64		
CC(C)n1nccc1-c1ncccc1COc1ccc2c(c1C=O)C(O)C(F)(F)C2 (stereo not shown) [Example 10, 2,2-difluoro-3-hydroxy-5-((2-(1-isopropyl-1H-pyrazol-5-yl)pyridin-3-yl)methoxy)-2,3-dihydro-1H-indene-4-carbaldehyde]	−68		
CC(C)n1nccc1-c1ncccc1COc1ccn2nnnc2c1C=O [Example 13, 7-((2-(1-isopropyl-1H-pyrazol-5-yl)pyridin-3-yl)methoxy)tetrazolo[1,5-a]pyridine-8-carbaldehyde]	−9		
CC(C)n1nccc1-c1ncccc1COc1ccc2ocnc2c1C=O [Example 14, 5-((2-(1-isopropyl-1H-pyrazol-5-yl)pyridin-3-yl)methoxy)benzo[d]oxazole-4-carbaldehyde]	−63		
CC(C)n1nccc1-c1ncccc1COc1ccc2ncoc2c1C=O [Example 15, 6-((2-(1-isopropyl-1H-pyrazol-5-yl)pyridin-3-yl)methoxy)benzo[d]oxazole-7-carbaldehyde]	−81		
CC(C)n1nccc1-c1ncccc1COc1ccc2sccc2c1C=O [Example 20, 5-((2-(1-isopropyl-1H-pyrazol-5-yl)pyridin-3-yl)methoxy)benzo[b]thiophene-4-carbaldehyde]	−74		
CC(C)n1nccc1-c1cccnc1COc1ccc2ncoc2c1C=O [Example 58, 6-((3-(1-isopropyl-1H-pyrazol-5-yl)pyridin-2-yl)methoxy)benzo[d]oxazole-7-carbaldehyde]		−14.30	−34.30
CC(C)n1nccc1-c1c(COc2cccc(O)c2C=O)ncn1C [Example 63, 2-hydroxy-6-((5-(1-isopropyl-1H-pyrazol-5-yl)-1-methyl-1H-imidazol-4-yl)methoxy)benzaldehyde]		−7.00	−15.20
CC(C)n1nccc1-c1scnc1COc1cccc(O)c1C=O [Example 64, 2-hydroxy-6-((5-(1-isopropyl-1H-pyrazol-5-yl)thiazol-4-yl)methoxy)benzaldehyde]		−10.00	−31.00
CC(C)n1nccc1-c1ncsc1COc1cccc(O)c1C=O [Example 65, 2-hydroxy-6-((4-(1-isopropyl-1H-pyrazol-5-yl)thiazol-5-yl)methoxy)benzaldehyde]		−11.20	−36.20
CC(C)n1nccc1-c1ocnc1COc1cccc(O)c1C=O [Example 66, 2-hydroxy-6-((5-(1-isopropyl-1H-pyrazol-5-yl)oxazol-4-yl)methoxy)benzaldehyde]		−5.70	−16.50
CC(C)n1nccc1-c1ncoc1COc1cccc(O)c1C=O [Example 67, 2-hydroxy-6-((4-(1-isopropyl-1H-pyrazol-5-yl)oxazol-5-yl)methoxy)benzaldehyde]		−6.80	−25.30
Cc1nc(COc2cccc(O)c2C=O)c(-c2ccnn2C(C)C)o1 [Example 68, 2-hydroxy-6-((5-(1-isopropyl-1H-pyrazol-5-yl)-2-methyloxazol-4-yl)methoxy)benzaldehyde]		−8.70	−13.00
CC(C)n1nccc1-c1ncn(C)c1COc1cccc(O)c1C=O [Example 69, 2-hydroxy-6-((4-(1-isopropyl-1H-pyrazol-5-yl)-1-methyl-1H-imidazol-5-yl)methoxy)benzaldehyde]		−21.40	−41.80
Cc1nc(-c2ccnn2C(C)C)c(COc2cccc(O)c2C=O)s1 [Example 70, 2-hydroxy-6-((4-(1-isopropyl-1H-pyrazol-5-yl)-2-methylthiazol-5-yl)methoxy)benzaldehyde]		−10.40	−21.90
[2H]C([2H])(Oc1cccc(O)c1C=O)c1nccnc1-n1ccnc1C(C)C [Example 72, 2-hydroxy-6-((3-(2-isopropyl-1H-imidazol-1-yl)pyrazin-2-yl)methoxy-d2)benzaldehyde]		−5.10	−16.80
CC(C)n1nccc1-c1nccc(F)c1COc1cccc(O)c1C=O [Example 74, 2-((4-fluoro-2-(1-isopropyl-1H-pyrazol-5-yl)pyridin-3-yl)methoxy)-6-hydroxybenzaldehyde]		−15.8	−48.4
[2H]C([2H])(Oc1cccc(O)c1C=O)c1c(F)ccnc1-c1ccnn1C(C)C [Example 75, 2-((4-fluoro-2-(1-isopropyl-1H-pyrazol-5-yl)pyridin-3-yl)methoxy-d2)-6-hydroxybenzaldehyde]		−13.0	−53.7
